ChEMBL document CHEMBL3804812, “Design, Syntheses, and Anti-TB Activity of 1,3-Benzothiazinone Azide and Click Chemistry Products Inspired by BTZ043” (ACS Med Chem Lett, 2016)
Calls of active or inactive are those of the source. The rule behind the calls is not given here.

System: Mycobacterium tuberculosis
Assay: Antibacterial activity against Mycobacterium tuberculosis NTB1 harboring cys287ser mutation in DprE1 assessed as reduction in colony formation
Format: functional, organism-based

C[C@H]1COC2(CCN(c3nc(=O)c4cc(C(F)(F)F)cc(N=[N+]=[N-])c4s3)CC2)O1
Activity: Active
